# Measured values: patent US12544388B2, “Compound for treating and/or preventing diseases caused by coronavirus and use thereof” (SHANGHAITECH UNIVERSITY, priority 2020, dated 2026)
# Assays:
# [1] = molecular target: SARS-CoV-2 papain-like protease (Severe acute respiratory syndrome coronavirus 2, UniProt P0DTD1); assay type: biochemical; details: for inhibition of papain-like protease activity versus negative control: 50 μM inhibitor, 0.2 μM enzyme (FIG. 4, FIG. 5)
# in vitro = details: African green monkey
# [2] = Phase I, patients with advanced solid tumors; cited from earlier work
SMILES,inhibition of papain-like protease activity versus negative control [1],CC50 (in vitro),"IC50 ([1]; 200 nM enzyme, 20 μM substrate, 10 min room temperature, read-out: IC50, inhibitory activity on novel coronavirus papain-like protease)",MTD (maximum tolerated dose) [2]
"Cc1coc2c1C(=O)C(=O)c1c-2ccc2c(C)cccc12 [tanshinone I, Tanshinone I]",significantly inhibit,> 300 µM,–,–
"C[C@H]1COC2=C1C(=O)C(=O)c1c2ccc2c1CCCC2(C)C [cryptotanshinone, Cryptotanshinone]",significantly inhibit,> 300 µM,–,–
"Br.COCCn1c2c([n+](Cc3cnccn3)c1C)C(=O)c1ccccc1C2=O [YM155, Sepantronium Bromide]",–,> 133 µM,2.47 µM,8.0 mg/m^2/d
